The text below walks through data of ChEMBL document CHEMBL1201862, “PubChem BioAssay data set” (2004).

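Test compounds were applied to cells in 96-well plates for 48 hours at 5 doses. Here, GI50 denotes the concentration required for 50% inhibition of growth.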 Active and inactive are the calls of the source. No stated cut-off is given here; in the data, active = GI50 up to about 1.1 µM and inactive = higher.

Holding throughout (experiment): growth of human tumour cells (NCI), 48 h
Assay [1] concerns NCI-H522.
Assay [2] relates to NCI-H23.
Assay [3] deals with TK-10.
Assay [4] deals with SNB-19.
The test system of assay [5] is 786-0.
The test system of assay [6] is UACC-62.
Assay [7] deals with COLO 205.
Assay [8] deals with NCI/ADR-RES.
The subject of assay [9] is HL-60.
Assay [10] deals with SK-MEL-2.
For assay [11], the system named is OVCAR-8.
Assay [12] concerns MDA-MB-435.
Assay [13] deals with SN12C.
Assay [14] deals with OVCAR-5.
Assay [15] relates to SF-295.
The subject of assay [16] is HOP-62.
Assay [17] has as its system HCT-15.
The subject of assay [18] is ACHN.
The test system of assay [19] is SNB-75.

With `OCCCN=C1CCCCC1`, the GI50 was 77.4 µM (inactive) in assay [1]; > 100 µM (inactive) in assay [2]; > 100 µM (inactive) in [3]; > 100 µM (inactive) in assay [4]; > 100 µM (inactive) in assay [5]; > 100 µM (inactive) in [6]. For the same compound, the GI50 is > 100 µM (inactive) in assay [7]; > 100 µM (inactive) in assay [8]; > 100 µM (inactive) in assay [9]; 56.8 µM (inactive) in assay [10]; > 100 µM (inactive) in assay [11]; > 100 µM (inactive) in assay [12]. Also, the GI50 in assay [13] was > 100 µM (inactive); in assay [14], > 100 µM (inactive); in [15], > 100 µM (inactive); in [16], > 100 µM (inactive); in assay [17] it was greater than 100 µM; in assay [18], > 100 µM (inactive).
Consider `Cn1c(COC(=O)Nc2ccccc2)c(COC(=O)Nc2ccccc2)c2ccc3cc(Cl)c(Cl)cc3c21`, for which the GI50 in [2] is 2.63 µM (inactive); in assay [3] it was 9.4 µM (inactive); in assay [4] it was 4.24 µM (inactive); in assay [5] it was 2.76 µM (inactive); in assay [6], 6.24 µM (inactive); in assay [19] it was 8.53 µM (inactive). Further, the GI50 is 3.39 µM (inactive) in assay [7]; 16.4 µM (inactive) in [8]; 2.46 µM (inactive) in assay [9]; 4.31 µM (inactive) in assay [10]; 6.73 µM (inactive) in [11]; 7.87 µM (inactive) in assay [12]. In addition, the GI50 is 4.07 µM (inactive) in assay [13]; 10.7 µM (inactive) in [14]; 18.7 µM (inactive) in assay [15]; 4.4 µM in assay [17]; 8.79 µM (inactive) in assay [18].
Take `NC(CCC(=O)c1ccccn1)C(=O)O` (stereo not given): the GI50 in assay [1], in [2], in assay [3], in assay [4], in [5] and in assay [6] was > 100 µM (inactive) throughout. Besides, the GI50 in assay [7], in assay [8], in assay [9], in assay [10], in [11] and in [12] was > 100 µM (inactive) throughout. For the same compound, the GI50 in [13] is > 100 µM (inactive); in [14], > 100 µM (inactive); in assay [15], > 100 µM (inactive); in [16] it was > 100 µM (inactive); in assay [17] it was greater than 100 µM; in assay [18], > 100 µM (inactive).
Consider `Cc1nc(-c2cc3cc(Cl)ccc3oc2=O)cc2c1c(=O)oc1ccc(Cl)cc12`, for which the GI50 is 70.3 µM (inactive) in assay [1]; > 100 µM (inactive) in assay [2]; > 100 µM (inactive) in [3]; > 100 µM (inactive) in assay [4]; > 100 µM (inactive) in assay [5]; > 100 µM (inactive) in assay [6]. The GI50 in assay [7], in [8], in assay [9], in assay [10], in assay [11] and in assay [12] was > 100 µM (inactive) each time. For the same compound, the GI50 in [13] is > 100 µM (inactive); in assay [15], > 100 µM (inactive); in [16], > 100 µM (inactive); in [17], greater than 100 µM; in assay [18], > 100 µM (inactive).
For `Cc1c(-c2ccccc2)n(C)c2cn[nH]c(=O)c12`, the GI50 in assay [1] was > 100 µM (inactive); in assay [2] it was 38.4 µM (inactive); in assay [3], 41.4 µM (inactive); in [4], > 100 µM (inactive); in assay [5], 23.3 µM (inactive); in assay [6], 34.9 µM (inactive). In addition, the GI50 in assay [7] is 17.1 µM (inactive); in assay [8], 26.7 µM (inactive); in [9], 36.5 µM (inactive); in assay [10], 22.7 µM (inactive); in assay [11] it was 39.2 µM (inactive); in [12], 33.1 µM (inactive). Besides, the GI50 in assay [14] was 52.2 µM (inactive); in assay [15], 25.2 µM (inactive); in assay [16] it was 30 µM (inactive); in assay [17], 36.6 µM; in [18], 44.3 µM (inactive).
`CCOC(=O)c1c(NC(=O)c2ccccc2)sc2c1CCCC2`: the GI50 in assay [2] was > 100 µM (inactive); in [3] it was > 100 µM (inactive); in assay [4], > 100 µM (inactive); in [5], > 100 µM (inactive); in [6], > 100 µM (inactive); in [19] it was 7.23 µM (inactive). The GI50 in assay [7], in assay [8], in assay [9], in assay [10], in [11] and in assay [12] was > 100 µM (inactive) in each case. For the same compound, the GI50 is > 100 µM (inactive) in [13]; > 100 µM (inactive) in assay [14]; > 100 µM (inactive) in [15]; greater than 100 µM in assay [17]; > 100 µM (inactive) in [18].
`O=C1CSC(c2cccc([N+](=O)[O-])c2)N1c1ccc(-c2ccc(-n3c(-c4ccccc4)nc4ccccc4c3=O)cc2)cc1` (stereo not given): the GI50 in assay [1] is 25.6 µM (inactive); in assay [2] it was 59.8 µM (inactive); in assay [3], > 100 µM (inactive); in assay [4] it was 59.6 µM (inactive); in assay [5] it was 24.6 µM (inactive); in [6] it was 28.8 µM (inactive). The GI50 in assay [7] is 21.1 µM (inactive); in [8], 37.2 µM (inactive); in [9] it was 19.5 µM (inactive); in assay [10] it was 29.2 µM (inactive); in assay [11] it was 40.7 µM (inactive); in assay [12], 27 µM (inactive). Further, the GI50 in assay [13] was 48.6 µM (inactive); in assay [14], > 100 µM (inactive); in assay [15], 45.8 µM (inactive); in assay [16] it was 63.7 µM (inactive); in assay [17], 32.1 µM; in [18], 27 µM (inactive).
For `CCN(CCCN(CC)C(=O)N[C@@H](Cc1ccccc1)C(=O)NC)C(=O)N[C@@H](Cc1ccccc1)C(=O)NC`, the GI50 in assay [1], in assay [2], in assay [3], in assay [4], in assay [5] and in [6] was > 100 µM (inactive) throughout. Besides, the GI50 in assay [7], in assay [8], in assay [10], in [11], in assay [12] and in assay [14] was > 100 µM (inactive) each time. Also, the GI50 was > 100 µM (inactive) in assay [15], > 100 µM (inactive) in assay [16], greater than 100 µM in [17] and > 100 µM (inactive) in [18].
Turning to `CC(C)(C)OC(=O)/C=C/[C@@H](CCC(=O)/C=C/[C@H](/C=C\CCCC(=O)O)NC1(c2ccccc2)c2ccccc2-c2ccccc21)O[Si](C)(C)C(C)(C)C`, the GI50 in assay [1] was 18.5 µM (inactive); in assay [2], 16.3 µM (inactive); in assay [3], 24.8 µM (inactive); in assay [4], 20.6 µM (inactive); in assay [5] it was 16.1 µM (inactive); in assay [6] it was 13.9 µM (inactive). Besides, the GI50 in assay [7] is 21.5 µM (inactive); in assay [8], 10.8 µM (inactive); in [9], 24.8 µM (inactive); in assay [10] it was 15.4 µM (inactive); in assay [11], 18.1 µM (inactive); in [12], 17.8 µM (inactive). Moreover, the GI50 in [13] was 15.8 µM (inactive); in [14], 20.5 µM (inactive); in assay [15] it was 15.5 µM (inactive); in assay [16], 17.5 µM (inactive); in [17], 12.3 µM; in [18] it was 17.8 µM (inactive).
As for `CCOC(=O)[C@@H]1C[C@@H]1c1ccc(O)c(O)c1`, the GI50 in assay [1] is 4.62 µM (inactive); in [2] it was 43.4 µM (inactive); in assay [3], > 100 µM (inactive); in [4], 49 µM (inactive); in assay [5], 16.1 µM (inactive); in [6], 13.4 µM (inactive). Besides, the GI50 in assay [7] is 27.4 µM (inactive); in [8], 46.6 µM (inactive); in [10] it was 29.7 µM (inactive); in assay [11], 21.8 µM (inactive); in assay [12] it was 16.9 µM (inactive); in assay [13] it was 78.2 µM (inactive). Further, the GI50 was > 100 µM (inactive) in [14]; 59.7 µM (inactive) in assay [15]; 17.6 µM (inactive) in assay [16]; 45.5 µM in assay [17]; 42.8 µM (inactive) in assay [18].
For the compound `COc1ccc(/C=C2\CN(C)CC3=C2OC(N)=C(C#N)C3c2ccc(OC)cc2)cc1` (stereo not given), the GI50 was 14.5 µM (inactive) in [1]; > 68.2 µM (inactive) in assay [2]; > 84.5 µM (inactive) in assay [3]; > 86.7 µM (inactive) in assay [4]; 30.5 µM (inactive) in assay [5]; > 100 µM (inactive) in assay [6]. For the same compound, the GI50 is > 52.1 µM (inactive) in assay [7]; 51.9 µM (inactive) in assay [8]; > 45.9 µM (inactive) in [10]; 19.9 µM (inactive) in [11]; 17.7 µM (inactive) in [12]; 35.4 µM (inactive) in assay [13]. The GI50 in assay [14] was > 100 µM (inactive); in assay [15], 57.5 µM (inactive); in assay [16], > 77.4 µM (inactive); in [17], 55.6 µM; in assay [18], 29.6 µM (inactive).
